Laboratory results: PubChem BioAssay (NCI)
Several values for one entry are separate records, joined by “and”; a condition that tells them apart may be missing. Equal entries are not always repeated.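 Five concentrations, 48 hours, 96-well plates. The concentration for 50% growth inhibition is given as GI50. Definition used: TGI = concentration required for complete inhibition of growth.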

Experiments:
Assay in all cases: DTP human tumour cell line panel, 48 h
MALME-3M melanoma = test system: MALME-3M melanoma
COLO 205 colon = test system: COLO 205 colon
OVCAR-4 ovarian = test system: OVCAR-4 ovarian
MOLT-4 leukemia = test system: MOLT-4 leukemia
MDA-MB-231 breast = test system: MDA-MB-231 breast
SW-620 colon = test system: SW-620 colon
SF-295 CNS = test system: SF-295 CNS
CCRF-CEM leukemia = test system: CCRF-CEM leukemia
LOX IMVI melanoma = test system: LOX IMVI melanoma
U251 CNS = test system: U251 CNS

Compound	TGI (MALME-3M melanoma)	TGI (COLO 205 colon)	TGI (OVCAR-4 ovarian)	TGI (MOLT-4 leukemia)	TGI (MDA-MB-231 breast)	TGI (SW-620 colon)	TGI (SF-295 CNS)	TGI (CCRF-CEM leukemia)	TGI (LOX IMVI melanoma)	TGI (U251 CNS)	GI50 (MALME-3M melanoma)	GI50 (COLO 205 colon)	GI50 (OVCAR-4 ovarian)	GI50 (MOLT-4 leukemia)	GI50 (MDA-MB-231 breast)	GI50 (SW-620 colon)	GI50 (SF-295 CNS)	GI50 (CCRF-CEM leukemia)	GI50 (LOX IMVI melanoma)	GI50 (U251 CNS)
COc1ccc(/C=C/c2nccc3ccccc23)cc1OC	> 10 µM	> 10 µM	> 10 µM	> 10 µM	> 10 µM	> 10 µM	> 10 µM	> 10 µM	> 10 µM	> 10 µM										
COc1cc(C2=C(c3ccccc3)COC2=O)cc(OC)c1OC	> 100 µM	6.69 µM	> 100 µM	> 100 µM	> 100 µM	> 100 µM	2.9 µM	> 100 µM	> 100 µM	> 100 µM	439 nM	834 nM	38.9 µM	4.18 µM	3.2 µM	1.68 µM	324 nM	1.38 µM	18.6 µM	5.86 µM
CC(=O)OC[C@]1(C)C=C2C(=O)[C@](C)(O)C3(CC3)C(C)=C2[C@H]1O	0.302 µM	0.308 µM	0.649 µM	> 100 µM	0.806 µM	> 50 µM	1.56 µM	> 100 µM	0.65 µM	6.16 µM	124 nM	110 nM	0.094 µM	0.0629 µM	0.152 µM	0.044 µM	131 nM	0.206 µM	0.0875 µM	0.068 µM
CC[CH2][Sn]([CH2]CC)([O]C(=O)c1cccnc1SC)[O][Sn]([CH2]CC)([CH2]CC)[O]C(=O)c1cccnc1SC	0.566 µM	1.08 µM	2.34 µM	> 16.6 µM	2.76 µM	0.503 µM	3.04 µM	0.756 µM	0.567 µM	0.592 µM	237 nM	396 nM	1.03 µM	0.149 µM	1.34 µM	0.216 µM	1040 nM	0.0691 µM	0.23 µM	0.25 µM
N#Cc1ccc(O)c(C2=NCC(c3cccc(Oc4ccccc4)c3)O2)c1 (stereo not given)	7.76 µM	15.6 µM	> 100 µM	> 100 µM	12 µM	22.8 µM	23.5 µM	> 100 µM	12.7 µM	> 100 µM	1830 nM	3130 nM	0.519 µM	1.67 µM	1.28 µM	0.508 µM	413 nM	0.555 µM	0.42 µM	0.503 µM
CCc1ccc(/C=C\c2cc(OC)c(OC)c(OC)c2)cc1	37.4 µM	0.134 µM and 0.0499 µM	> 100 µM		0.25 µM		0.0171 µM		0.581 µM		44.7 nM	21.2 nM						0.0274 µM		
COc1cc2c(c(O)c1Br)C(=O)c1c(O)cc(C[C@H](C)O)cc1[C@H]2[C@H]1c2cc(C[C@H](C)O)cc(O)c2C(=O)c2c1cc(OC)c(Br)c2O	17 µM and 26.1 µM	9.21 µM and 24.9 µM	67.5 µM and 98.1 µM	67.5 µM and > 100 µM	21.7 µM and 34.8 µM	67.5 µM and > 100 µM	21.5 µM and 22.4 µM	67.5 µM and 92.9 µM	16.2 µM and 34.4 µM	23.1 µM and 39.2 µM	6650 nM and 12800 nM	2320 nM and 6740 nM	11.1 µM and 25 µM	3.54 µM and 6.39 µM	3.76 µM and 14.1 µM	5.36 µM and 19.9 µM	8000 nM and 10200 nM	3.86 µM and 14.3 µM	6.57 µM and 11.4 µM	2.97 µM and 5.25 µM
Cc1ccc(NC(=O)c2cccc(N(C)C)c2)cc1NC(=O)c1ccc(O)cc1	> 100 µM	> 100 µM	> 100 µM	> 100 µM	> 93.6 µM	> 100 µM	> 100 µM	> 100 µM	> 100 µM	> 100 µM	> 75900 nM	> 64700 nM	38.6 µM	> 72.4 µM	33 µM	> 75.5 µM	37600 nM	16.6 µM	> 62 µM	> 68.8 µM
C[C@]12CC[C@H]3[C@@H](CC=C4C[C@@H](O)CC[C@@]43C)[C@@H]1CC[C@@H]2N(CCO)CCO	> 100 µM	> 100 µM	> 100 µM	> 100 µM	> 100 µM	> 100 µM	> 100 µM	> 100 µM	> 100 µM	> 100 µM										
N#Cc1ccc(NC(=O)Nc2ccc(Oc3ccc(NC(=O)Nc4ccc(C#N)cc4)cc3)cc2)cc1	77.8 µM	> 100 µM	> 100 µM	37.7 µM	> 100 µM	> 100 µM	13.6 µM	> 100 µM	> 100 µM	27.8 µM	3280 nM	24600 nM	5.65 µM	1.12 µM	12.4 µM	26 µM	379 nM	22.1 µM	15.7 µM	4.85 µM
CCCn1cnc2c(SCc3ccccc3Cl)nc(N)nc21	58.7 µM	> 100 µM	> 100 µM	34.1 µM	29.3 µM	> 100 µM	30.4 µM	47.3 µM	20.3 µM	37.8 µM	21400 nM	10700 nM	28 µM	5.22 µM	11.8 µM	11.9 µM	10200 nM	5.9 µM	4.86 µM	5.62 µM
O/N=C/C1c2ccccc2-c2ccccc21	31.9 µM	30.7 µM		52.6 µM	29 µM	40.7 µM	53.4 µM	50.4 µM	63.3 µM	44 µM										
CC[C@]1(O)C[C@@H]2CN(CCc3c([nH]c4ccccc34)[C@@](C(=O)OC)(c3cc4c(cc3OC)N(C)[C@H]3[C@@](O)(C(=O)OC)[C@H](OC(C)=O)[C@]5(CC)C=CCN6CC[C@]43[C@@H]65)C2)C1	14.1 µM	< 0.0194 µM	> 100 µM	21.3 µM	11.2 µM	> 100 µM	0.991 µM	> 49.3 µM	14.8 µM	20.5 µM	< 10 nM	< 10 nM		< 0.01 µM	< 0.01 µM	< 0.01 µM	< 10 nM	< 0.01 µM	< 0.01 µM	< 0.01 µM
O=C1Nc2c(C(F)(F)F)cccc2[C@]1(c1ccc(O)cc1)c1ccc(OC(F)(F)F)cc1	26.6 µM	25.4 µM	5.23 µM	23.6 µM	26.2 µM	32.2 µM	22.1 µM	49.9 µM		24.6 µM	13000 nM	3260 nM	0.543 µM	5.34 µM	13 µM	14.5 µM	10000 nM	11.7 µM		11.1 µM
